Converted amounts (≈) assume the structure as drawn. Like-named read-outs stand apart in the source and are kept apart here. Blank lines part the entries; values can stand above or below the compound they belong to.
Columns and labels:
MRSA (ATCC43300) = test: Antibacterial MIC, broth growth inhibition OD600; assay type: cell-based, Staphylococcus aureus; conditions: MIC = ≥80% growth inhibition
A. baumannii (ATCC19606) = test: Antibacterial MIC, broth growth inhibition OD600; assay type: cell-based, Acinetobacter baumannii
[1] = tested on: P. aeruginosa (ATCC27853); test: Antibacterial MIC, broth growth inhibition OD600; assay type: cell-based, Pseudomonas aeruginosa
C. albicans (ATCC90028) = test: Antifungal MIC, growth inhibition; assay type: cell-based; conditions: Candida albicans
E. coli (ATCC25922) = test: Antibacterial MIC, broth growth inhibition OD600; assay type: cell-based, Escherichia coli; conditions: for MIC: Escherichia coli, ATCC25922, read-out: MIC Ec
[2] = tested on: C. neoformans (ATCC 208821); test: Antifungal MIC, growth inhibition; assay type: cell-based; conditions: Cryptococcus neoformans, ATCC208821, read-out: MIC Cn
[3] = tested on: E. coli, K. pneumoniae, P. aeruginosa, A. baumannii, MRSA, C. albicans, C. neoformans; test: Antibacterial and antifungal MIC panel; assay type: cell-based
[4] = ATCC90028, read-out: MIC Ca, MIC = ≥80% growth inhibition

Compound: COc1cc2c(=O)c(C(=O)NCCNCCO)cn(Cc3ccccc3)c2cc1OCc1cccc(F)c1 [Compound 42, 1-Benzyl-7-[(3-fluorobenzyl)oxy]-N-{2-[(2-hydroxyethyl)amino]ethyl}-6-methoxy-4-oxo-1,4-dihydroquinoline-3-carboxamide]
MIC MRSa (MRSA (ATCC43300)): >32 µg/mL
MIC (A. baumannii (ATCC19606); Acinetobacter baumannii, ATCC19606, read-out: MIC Ab): < 0.25 µg/mL
MIC ([1]; Pseudomonas aeruginosa, ATCC27853, read-out: MIC Pa): < 0.25 µg/mL
MIC (C. albicans (ATCC90028); ATCC90028, read-out: MIC Ca): > 32 µg/mL
MIC (E. coli (ATCC25922)): < 0.25 µg/mL
MIC [2]: < 0.25 µg/mL

MIC MRSa (MRSA (ATCC43300)): >32 µg/mL
MIC (C. albicans (ATCC90028); [4]): > 32 µg/mL
MIC (E. coli (ATCC25922)): < 0.25 µg/mL
Compound: CCn1cc(C(=O)NCCNCCO)c(=O)c2cc(OC)c(OCc3cc(F)cc(F)c3)cc21 [Compound 43, 7-[(3,5-Difluorobenzyl)oxy]-1-ethyl-N-{2-[(2-hydroxyethyl)amino]ethyl}-6-methoxy-4-oxo-1,4-dihydroquinoline-3-carboxamide]

MIC (C. albicans (ATCC90028); [4]): 0.125 µg/mL (≈ 0.408 µM)
Compound: OC(Cn1cncn1)(Cn1cncn1)c1ccc(F)cc1F [fluconazole, reference compound]

MIC Ab (A. baumannii (ATCC19606); MIC = ≥80% growth inhibition): 0.25 µg/mL
MIC Pa ([1]; MIC = ≥80% growth inhibition): 0.25 µg/mL
MIC against Gram-negative bacteria (summary) [3]: 0.1 to 0.25 µg/mL
MIC Ec (E. coli (ATCC25922); MIC = ≥80% growth inhibition): 0.12 µg/mL
Compound: colistin [reference compound]

From publication PMC10193574 (ACS Omega, 2023)
